Assay results from ChEMBL document CHEMBL5046277, “Rational Design for Nitroreductase (NTR)-Responsive Proteolysis Targeting Chimeras (PROTACs) Selectively Targeting Tumor Tissues” (J Med Chem, 2022).
Calls of active or inactive are those of the source. The rule behind the calls is not given here.

How the values were obtained:
[1] = molecular target: Epidermal growth factor receptor (Homo sapiens) (UniProt P00533); experiment: Induction of EGFR degradation in human HCC827 cells assessed as EGFR protein level measured after 72 hrs under normoxic condition by Western blot assay; type: functional, cell-based
Epidermal growth factor receptor (Homo sapiens), sequence (P00533 whole entry): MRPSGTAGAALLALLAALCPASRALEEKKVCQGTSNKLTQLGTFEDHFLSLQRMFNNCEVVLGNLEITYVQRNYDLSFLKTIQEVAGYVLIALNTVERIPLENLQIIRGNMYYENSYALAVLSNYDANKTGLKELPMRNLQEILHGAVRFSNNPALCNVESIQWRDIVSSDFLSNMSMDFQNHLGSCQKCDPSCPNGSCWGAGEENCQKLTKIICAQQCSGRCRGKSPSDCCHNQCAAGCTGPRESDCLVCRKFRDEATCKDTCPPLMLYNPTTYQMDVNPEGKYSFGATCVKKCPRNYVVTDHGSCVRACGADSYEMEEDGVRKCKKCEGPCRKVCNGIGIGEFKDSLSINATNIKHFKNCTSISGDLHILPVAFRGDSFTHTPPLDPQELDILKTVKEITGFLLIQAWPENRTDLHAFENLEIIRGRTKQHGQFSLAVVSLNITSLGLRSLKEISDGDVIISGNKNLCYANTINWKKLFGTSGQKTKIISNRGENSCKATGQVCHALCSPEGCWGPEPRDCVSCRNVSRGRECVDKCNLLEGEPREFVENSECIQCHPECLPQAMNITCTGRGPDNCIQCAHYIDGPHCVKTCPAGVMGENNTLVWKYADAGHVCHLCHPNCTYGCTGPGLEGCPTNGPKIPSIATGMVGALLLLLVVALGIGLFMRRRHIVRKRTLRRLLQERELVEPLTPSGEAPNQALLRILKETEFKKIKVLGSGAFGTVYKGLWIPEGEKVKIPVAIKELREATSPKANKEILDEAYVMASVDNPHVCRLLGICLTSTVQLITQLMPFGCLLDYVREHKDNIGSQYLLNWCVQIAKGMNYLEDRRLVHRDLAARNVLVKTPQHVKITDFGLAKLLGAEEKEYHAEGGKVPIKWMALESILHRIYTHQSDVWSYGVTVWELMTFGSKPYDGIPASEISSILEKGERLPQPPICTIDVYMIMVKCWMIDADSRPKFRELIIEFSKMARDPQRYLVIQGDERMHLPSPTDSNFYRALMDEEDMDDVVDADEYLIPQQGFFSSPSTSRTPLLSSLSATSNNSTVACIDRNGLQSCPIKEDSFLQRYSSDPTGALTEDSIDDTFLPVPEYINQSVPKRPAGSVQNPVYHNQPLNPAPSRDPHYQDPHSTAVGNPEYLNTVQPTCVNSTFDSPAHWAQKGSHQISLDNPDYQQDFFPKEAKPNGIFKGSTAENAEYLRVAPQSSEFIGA

[2] = molecular target: von Hippel-Lindau disease tumor suppressor/Epidermal growth factor receptor (Homo sapiens) (UniProt P00533+P40337); experiment: Protac activity at VHL/EGFR in human HCC827 cells assessed as induction of EGFR degradation at 100 nM pretreated for 2 hrs with VHL-L followed by compound addition; type: cell-based
von Hippel-Lindau disease tumor suppressor/Epidermal growth factor receptor (Homo sapiens), sequence (P00533 25-1210 limits assumed): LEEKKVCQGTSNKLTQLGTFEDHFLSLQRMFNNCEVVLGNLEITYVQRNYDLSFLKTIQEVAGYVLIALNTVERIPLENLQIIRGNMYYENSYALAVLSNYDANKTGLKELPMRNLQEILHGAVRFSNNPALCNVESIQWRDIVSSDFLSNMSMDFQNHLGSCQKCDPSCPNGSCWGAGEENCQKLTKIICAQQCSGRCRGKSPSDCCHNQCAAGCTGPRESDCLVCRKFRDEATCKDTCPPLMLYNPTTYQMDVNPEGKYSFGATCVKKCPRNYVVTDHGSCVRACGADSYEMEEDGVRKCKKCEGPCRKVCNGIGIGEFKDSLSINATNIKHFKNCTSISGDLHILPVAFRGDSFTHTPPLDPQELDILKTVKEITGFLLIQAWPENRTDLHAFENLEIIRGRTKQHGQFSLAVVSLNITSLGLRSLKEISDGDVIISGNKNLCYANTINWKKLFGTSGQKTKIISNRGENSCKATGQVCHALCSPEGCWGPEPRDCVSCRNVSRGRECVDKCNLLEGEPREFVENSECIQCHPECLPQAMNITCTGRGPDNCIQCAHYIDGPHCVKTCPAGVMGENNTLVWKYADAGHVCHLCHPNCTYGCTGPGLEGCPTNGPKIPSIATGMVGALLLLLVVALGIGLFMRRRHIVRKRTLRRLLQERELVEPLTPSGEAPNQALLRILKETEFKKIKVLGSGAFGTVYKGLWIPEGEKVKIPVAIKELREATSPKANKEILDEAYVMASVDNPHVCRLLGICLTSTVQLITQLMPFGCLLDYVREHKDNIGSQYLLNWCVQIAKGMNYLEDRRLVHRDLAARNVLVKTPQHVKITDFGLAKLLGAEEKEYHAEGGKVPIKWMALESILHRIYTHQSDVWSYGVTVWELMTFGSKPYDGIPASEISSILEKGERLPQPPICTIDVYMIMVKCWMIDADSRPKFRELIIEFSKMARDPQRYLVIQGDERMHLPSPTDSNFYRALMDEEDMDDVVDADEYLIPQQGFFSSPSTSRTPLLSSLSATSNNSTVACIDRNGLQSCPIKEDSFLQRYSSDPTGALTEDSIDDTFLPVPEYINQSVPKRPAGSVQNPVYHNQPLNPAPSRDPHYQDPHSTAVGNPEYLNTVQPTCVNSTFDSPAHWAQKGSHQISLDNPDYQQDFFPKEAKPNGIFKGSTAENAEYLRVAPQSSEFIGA
von Hippel-Lindau disease tumor suppressor/Epidermal growth factor receptor (Homo sapiens), sequence (P40337 whole entry partner): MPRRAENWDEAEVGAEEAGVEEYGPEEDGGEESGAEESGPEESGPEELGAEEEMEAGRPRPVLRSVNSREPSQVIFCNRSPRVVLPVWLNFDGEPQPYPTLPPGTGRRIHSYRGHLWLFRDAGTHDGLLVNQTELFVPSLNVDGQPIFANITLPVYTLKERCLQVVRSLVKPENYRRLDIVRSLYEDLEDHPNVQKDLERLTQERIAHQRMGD

HCC827 [3] = experiment: Antiproliferative activity against human HCC827 cells assessed as reduction in cell viability measured after 72 hrs under normoxic condition by CCK-8 assay; type: functional, cell-based; details: HCC827, 72 h
HCC827 [4] = experiment: Antiproliferative activity against human HCC827 cells assessed as cell viability measured after 72 hrs in presence of NTR by CCK-8 assay; type: functional, cell-based; details: HCC827, 72 h
HCC827 [5] = experiment: Antiproliferative activity against human HCC827 cells assessed as cell viability measured after 72 hrs under hypoxic condition by CCK-8 assay; type: functional, cell-based; details: HCC827, 72 h
HCC827 [6] = experiment: Antiproliferative activity against human HCC827 cells assessed as cell viability measured after 72 hrs by CCK-8 assay; type: functional, cell-based
[7] = molecular target: Epidermal growth factor receptor (Homo sapiens) (UniProt P00533); experiment: Induction of EGFR degradation in human HCC827 cells assessed as EGFR protein level measured after 72 hrs by Western blot assay; type: cell-based

Activity [1] | Activity [2] | IC50 (HCC827 [3]) | IC50 (HCC827 [4]) | IC50 (HCC827 [5]) | Activity [7] | SMILES | Activity (HCC827 [6])
Dose-Dependent Effect | Active | 4 nM | 6 nM | 18.7 nM | – | Cc1ncsc1-c1ccc(CNC(=O)[C@@H]2C[C@@H](O)CN2C(=O)[C@@H](NC(=O)COCCOCCn2cc(CCCCCOc3cc4ncnc(Nc5ccc(F)c(Cl)c5)c4cc3NC(=O)/C=C/CN3CCCCC3)nn2)C(C)(C)C)cc1 | –
inactive | – | – | – | – | inactive | Cc1ncsc1-c1ccc(CNC(=O)[C@@H]2C[C@@H](O)CN2C(=O)[C@@H](NC(=O)COCCOCCOCCn2cc(COc3cc4ncnc(Nc5ccc(F)c(Cl)c5)c4cc3NC(=O)/C=C/CN3CCCCC3)nn2)C(C)(C)C)cc1 | inactive
